Assays:
Assay in all cases: filter binding kinase assay
Format in all cases: biochemical
Conditions in all cases: derived from % inhibition at 1 μM
[1] = biological target: T1, MAPK14 (Homo sapiens, UniProt Q16539)
T1 construct: purchased
Outline: (§1)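 Each reaction ran at ambient temperature following a five-minute compound preincubation, was started with ATP (5, 20 or 50 […] stock, per enzyme) and stopped with acid; substrate phosphorylation was read by scintillation counting of P81 filters.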

[2] = biological target: T2, PRKD2 (Homo sapiens, UniProt Q9BZL6)
T2 construct: purchased
T2 sequence (Q9BZL6 1-878): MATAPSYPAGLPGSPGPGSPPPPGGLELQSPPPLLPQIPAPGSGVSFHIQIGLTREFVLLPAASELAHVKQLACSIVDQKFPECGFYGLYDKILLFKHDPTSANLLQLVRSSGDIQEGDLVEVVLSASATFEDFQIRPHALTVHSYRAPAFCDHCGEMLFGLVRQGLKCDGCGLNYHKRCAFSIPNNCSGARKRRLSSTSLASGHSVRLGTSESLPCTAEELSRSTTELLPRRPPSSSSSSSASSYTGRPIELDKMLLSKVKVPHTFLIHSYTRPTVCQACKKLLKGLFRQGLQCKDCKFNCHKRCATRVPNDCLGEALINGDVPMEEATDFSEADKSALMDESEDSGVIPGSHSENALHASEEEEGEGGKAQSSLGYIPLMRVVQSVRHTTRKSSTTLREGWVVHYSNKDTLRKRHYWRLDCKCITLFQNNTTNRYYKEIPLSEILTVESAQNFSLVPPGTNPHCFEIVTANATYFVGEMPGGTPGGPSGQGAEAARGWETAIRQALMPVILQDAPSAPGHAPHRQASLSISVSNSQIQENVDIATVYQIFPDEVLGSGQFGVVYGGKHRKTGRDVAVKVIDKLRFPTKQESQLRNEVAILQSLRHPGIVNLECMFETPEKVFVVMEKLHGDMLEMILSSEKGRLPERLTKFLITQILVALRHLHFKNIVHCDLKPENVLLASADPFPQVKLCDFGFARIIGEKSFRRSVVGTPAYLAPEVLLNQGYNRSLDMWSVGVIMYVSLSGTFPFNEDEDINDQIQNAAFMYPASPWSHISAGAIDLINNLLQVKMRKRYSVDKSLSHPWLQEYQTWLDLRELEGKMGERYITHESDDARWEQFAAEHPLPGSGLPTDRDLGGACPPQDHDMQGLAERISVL
Outline: as §1

[3] = biological target: T3, YES1 (Homo sapiens, UniProt P07947)
T3 construct: purchased
Outline: as §1

[4] = biological target: T4, EPHB3 (Homo sapiens, UniProt P54753)
T4 construct: purchased
T4 sequence (P54753 34-998): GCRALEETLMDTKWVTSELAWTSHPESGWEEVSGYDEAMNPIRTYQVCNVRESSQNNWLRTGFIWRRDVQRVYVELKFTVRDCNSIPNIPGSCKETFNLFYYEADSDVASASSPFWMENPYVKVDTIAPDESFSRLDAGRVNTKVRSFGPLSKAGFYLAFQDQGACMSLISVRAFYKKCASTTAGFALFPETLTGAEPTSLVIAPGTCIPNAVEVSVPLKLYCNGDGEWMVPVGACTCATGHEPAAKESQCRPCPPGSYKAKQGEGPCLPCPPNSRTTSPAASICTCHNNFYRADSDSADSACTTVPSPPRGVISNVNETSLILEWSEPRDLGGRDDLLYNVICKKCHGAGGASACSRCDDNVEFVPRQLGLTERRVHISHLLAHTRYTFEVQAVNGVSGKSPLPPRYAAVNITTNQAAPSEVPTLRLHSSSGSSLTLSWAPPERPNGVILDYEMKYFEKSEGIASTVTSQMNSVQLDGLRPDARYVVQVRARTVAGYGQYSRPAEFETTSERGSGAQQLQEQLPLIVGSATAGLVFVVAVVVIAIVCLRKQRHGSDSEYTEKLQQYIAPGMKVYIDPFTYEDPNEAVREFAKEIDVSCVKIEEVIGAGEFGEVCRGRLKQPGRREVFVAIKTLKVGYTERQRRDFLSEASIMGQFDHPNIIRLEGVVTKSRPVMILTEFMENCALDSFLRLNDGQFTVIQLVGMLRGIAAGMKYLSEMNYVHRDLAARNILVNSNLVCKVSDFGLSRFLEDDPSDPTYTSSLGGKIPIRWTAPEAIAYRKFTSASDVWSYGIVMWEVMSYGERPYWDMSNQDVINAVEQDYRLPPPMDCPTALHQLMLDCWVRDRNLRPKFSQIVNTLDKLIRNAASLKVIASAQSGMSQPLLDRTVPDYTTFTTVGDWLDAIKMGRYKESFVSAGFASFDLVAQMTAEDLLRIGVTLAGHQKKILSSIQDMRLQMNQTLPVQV
Outline: as §1

[5] = biological target: T5, STK3 (Homo sapiens, UniProt Q13188)
T5 construct: purchased
T5 sequence (Q13188 1-491): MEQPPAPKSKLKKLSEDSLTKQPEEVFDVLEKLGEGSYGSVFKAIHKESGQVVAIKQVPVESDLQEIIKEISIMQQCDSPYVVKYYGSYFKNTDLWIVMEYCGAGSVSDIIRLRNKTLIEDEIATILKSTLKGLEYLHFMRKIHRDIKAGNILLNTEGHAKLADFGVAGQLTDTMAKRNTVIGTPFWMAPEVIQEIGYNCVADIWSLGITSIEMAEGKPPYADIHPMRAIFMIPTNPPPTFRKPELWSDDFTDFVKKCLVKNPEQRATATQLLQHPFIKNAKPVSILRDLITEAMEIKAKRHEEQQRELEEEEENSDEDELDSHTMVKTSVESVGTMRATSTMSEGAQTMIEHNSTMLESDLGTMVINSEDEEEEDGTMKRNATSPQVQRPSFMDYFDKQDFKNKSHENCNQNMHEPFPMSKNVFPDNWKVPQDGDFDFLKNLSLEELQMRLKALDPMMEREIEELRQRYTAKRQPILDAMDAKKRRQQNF
Outline: as §1

T3 sequence (P07947 whole entry, species assumed): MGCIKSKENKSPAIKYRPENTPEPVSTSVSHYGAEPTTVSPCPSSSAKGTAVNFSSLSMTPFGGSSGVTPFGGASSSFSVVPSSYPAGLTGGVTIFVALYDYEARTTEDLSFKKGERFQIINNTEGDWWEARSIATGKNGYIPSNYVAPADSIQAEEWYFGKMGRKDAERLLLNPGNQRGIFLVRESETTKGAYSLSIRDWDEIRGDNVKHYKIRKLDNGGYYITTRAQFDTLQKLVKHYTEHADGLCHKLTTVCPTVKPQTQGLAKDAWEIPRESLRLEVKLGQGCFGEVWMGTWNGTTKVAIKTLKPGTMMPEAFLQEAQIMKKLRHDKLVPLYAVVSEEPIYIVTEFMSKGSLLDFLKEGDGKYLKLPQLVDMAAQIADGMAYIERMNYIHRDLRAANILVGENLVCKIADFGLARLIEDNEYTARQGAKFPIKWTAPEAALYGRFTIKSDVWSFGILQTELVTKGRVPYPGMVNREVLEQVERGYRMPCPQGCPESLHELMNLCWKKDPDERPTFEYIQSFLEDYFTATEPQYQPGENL
T1 sequence (Q16539 whole entry, species assumed): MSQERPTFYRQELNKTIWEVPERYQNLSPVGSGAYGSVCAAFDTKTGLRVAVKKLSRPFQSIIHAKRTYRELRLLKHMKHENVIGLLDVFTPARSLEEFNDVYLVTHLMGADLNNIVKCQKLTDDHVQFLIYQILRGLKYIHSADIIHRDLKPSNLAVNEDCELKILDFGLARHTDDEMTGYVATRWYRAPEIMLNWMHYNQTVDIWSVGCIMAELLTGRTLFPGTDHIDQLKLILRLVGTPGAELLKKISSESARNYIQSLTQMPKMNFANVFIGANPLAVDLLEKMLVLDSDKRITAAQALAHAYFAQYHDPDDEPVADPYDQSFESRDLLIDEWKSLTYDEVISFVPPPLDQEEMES

For `c1ccc(Cc2c[nH]c3ncsc23)cc1` [Compound A7, 6-benzyl-4H-pyrrolo[2,3-d]thiazole], the IC50 [1] was 1000 to 10000 nM, the IC50 [2] was 1000 to 10000 nM and the IC50 [3] was > 1000 nM. The IC50 [4] was > 1000 nM and the IC50 [5] was 1000 to 10000 nM.
`Nc1ncsc1C#Cc1cnc2[nH]ccc2c1` [Compound A22, 5-(1H-pyrrolo[2,3-b]pyridin-5-ylethynyl)thiazol-4-ylamine] was tested, and the IC50 [1] was 10000 to 100000 nM, the IC50 [2] was > 1000 nM and the IC50 [3] was 1000 to 10000 nM. The IC50 [4] was 10000 to 100000 nM and the IC50 [5] was 10000 to 100000 nM.
In the case of `CC(C)(C)OC(=O)Nc1nc(-c2ccncc2)sc1C#CCN1CCOCC1` [Compound A25, tert-butyl[5-(3-morpholin-4-ylprop-1-ynyl)-2-pyridin-4-ylthiazol-4-yl]-carbamate], the IC50 [1] is reported as 10000 to 100000 nM, the IC50 [2] is reported as > 1000 nM and the IC50 [3] is reported as > 1000 nM. The IC50 [4] was > 1000 nM and the IC50 [5] was > 1000 nM.
In the case of `CC(C)(C)OC(=O)Nc1ncsc1C#CCN1C(=O)c2ccccc2C1=O` [Compound A26, tert-butyl{5-[3-(1,3-dioxo-1,3-dihydroisoindol-2-yl)prop-1-ynyl]-thiazol-4-yl}carbamate], the IC50 [1] is reported as 10000 to 100000 nM, the IC50 [2] is reported as > 1000 nM and the IC50 [3] is reported as > 1000 nM. For the same compound, the IC50 [4] was 1000 to 10000 nM and the IC50 [5] was > 1000 nM.
`Nc1ncsc1C#Cc1cccc(O)c1` [Compound A27, 3-(4-aminothiazol-5-ylethynyl)phenol] was tested, and the IC50 [1] was 1000 to 10000 nM, the IC50 [2] was 1000 to 10000 nM and the IC50 [3] was > 1000 nM. For the same compound, the IC50 [4] was 1000 to 10000 nM and the IC50 [5] was 1000 to 10000 nM.
